Experimental data from the NIST ThermoML archive (doi:10.1016/j.jct.2015.08.031).
Numbers after ± are expanded uncertainties.

Conditions: 101.33 kPa, Crystal, relaxation calorimeter

O[C@H]1[C@H](O)[C@H](O)OC[C@H]1O [β-D-arabinopyranose]
Conditions | molar entropy [J/K/mol]
0.5 K | 0.0007089 ± 8.4e-05
1 K | 0.001551 ± 0.00017
1.5 K | 0.002666 ± 0.00028
2 K | 0.004203 ± 0.00045
2.5 K | 0.006327 ± 0.00067
3 K | 0.009226 ± 0.00097
3.5 K | 0.01311 ± 0.0014
4 K | 0.01824 ± 0.0019
4.5 K | 0.02488 ± 0.0026
5 K | 0.03336 ± 0.0035
5.5 K | 0.04406 ± 0.0046
6 K | 0.0574 ± 0.006
6.5 K | 0.07383 ± 0.0077
7 K | 0.09385 ± 0.0098
7.5 K | 0.118 ± 0.012
8 K | 0.1468 ± 0.015
8.5 K | 0.1809 ± 0.019
9 K | 0.2206 ± 0.023
9.5 K | 0.2662 ± 0.028
10 K | 0.3182 ± 0.033
11 K | 0.4423 ± 0.046
12 K | 0.5944 ± 0.062
13 K | 0.7758 ± 0.081
14 K | 0.9866 ± 0.1
15 K | 1.227 ± 0.13
16 K | 1.496 ± 0.16
17 K | 1.793 ± 0.19
18 K | 2.116 ± 0.22
19 K | 2.466 ± 0.26
20 K | 2.839 ± 0.3
25 K | 5.013 ± 0.31
30 K | 7.582 ± 0.46
35 K | 10.43 ± 0.64
40 K | 13.47 ± 0.82
45 K | 16.66 ± 1
50 K | 19.95 ± 1.2
55 K | 23.28 ± 1.4
60 K | 26.64 ± 1.6
65 K | 30 ± 1.8
70 K | 33.38 ± 2
75 K | 36.77 ± 2.2
80 K | 40.16 ± 2.4
85 K | 43.54 ± 2.7
90 K | 46.93 ± 2.9
95 K | 50.31 ± 3.1
100 K | 53.68 ± 3.3
110 K | 60.41 ± 3.7
120 K | 67.11 ± 4.1
130 K | 73.78 ± 4.5
140 K | 80.41 ± 4.9
150 K | 87.01 ± 5.3
160 K | 93.58 ± 5.7
170 K | 100.12 ± 6.1
180 K | 106.62 ± 6.5
190 K | 113.1 ± 6.9
200 K | 119.55 ± 7.3
210 K | 125.98 ± 7.7
220 K | 132.38 ± 8.1
230 K | 138.76 ± 8.4
240 K | 145.12 ± 8.8
250 K | 151.45 ± 9.2
260 K | 157.77 ± 9.6
270 K | 164.07 ± 10
273.15 K | 166.06 ± 10
280 K | 170.36 ± 10
290 K | 176.63 ± 11
298.15 K | 181.72 ± 11
300 K | 182.88 ± 11
